Reference: PubChem BioAssay (NCI)
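Exposure lasted 48 hours, with cells grown in 96-well plates and compounds tested at five concentrations. The concentration for full growth arrest is given as TGI.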

How the values were obtained:
Test in all cases: DTP human tumour cell line panel, 48 h
[1] = test system: BT-549 breast
[2] = test system: HOP-62 NSCLC
[3] = test system: NCI-H226 lung
[4] = test system: DU-145 prostate
[5] = test system: RXF 393 renal
[6] = test system: OVCAR-3 ovarian
[7] = test system: SF-295 CNS
[8] = test system: SK-MEL-28 melanoma
[9] = test system: HT29 colon
[10] = test system: HL-60(TB) leukemia
[11] = test system: SNB-75 CNS
[12] = test system: CCRF-CEM leukemia
[13] = test system: LOX IMVI melanoma
[14] = test system: K-562 leukemia
[15] = test system: NCI-H23 lung
[16] = test system: UO-31 renal
[17] = test system: M14 melanoma
[18] = test system: KM12 colon
[19] = test system: PC-3 prostate
[20] = test system: U251 CNS
[21] = test system: SK-MEL-2 melanoma
[22] = test system: NCI/ADR-RES ovarian
[23] = test system: ACHN renal
[24] = test system: HOP-92 NSCLC
[25] = test system: MCF7 breast
[26] = test system: SK-OV-3 ovarian
[27] = test system: MDA-MB-435
[28] = test system: A549 NSCLC
[29] = test system: MALME-3M melanoma
[30] = test system: A498 renal
[31] = test system: TK-10 renal
[32] = test system: MDA-MB-231 breast
[33] = test system: NCI-H460 lung
[34] = test system: OVCAR-8 ovarian
[35] = test system: IGROV1 ovarian
[36] = test system: RPMI-8226 leukemia
[37] = test system: SN12C renal
[38] = test system: OVCAR-5 ovarian
[39] = test system: HCT-15 colon
[40] = test system: 786-0 renal
[41] = test system: HCT-116 colon
[42] = test system: HS 578T breast
[43] = test system: COLO 205 colon
[44] = test system: SW-620 colon
[45] = test system: SF-539 CNS
[46] = test system: MOLT-4 leukemia
[47] = test system: OVCAR-4 ovarian
[48] = test system: CAKI-1 renal
[49] = test system: SF-268 CNS
[50] = test system: EKVX NSCLC
[51] = test system: SK-MEL-5 melanoma
[52] = test system: T-47D breast
[53] = test system: UACC-62 melanoma
[54] = test system: SNB-19 CNS
[55] = test system: HCC-2998 colon
[56] = test system: UACC-257 melanoma
[57] = test system: NCI-H522 lung

CCCOc1ccc2sc(NC(=O)c3cc([N+](=O)[O-])cc([N+](=O)[O-])c3)nc2c1
TGI [1]: > 100 µM | TGI [2]: > 100 µM | TGI [3]: > 100 µM | TGI [4]: > 100 µM | TGI [5]: > 100 µM | TGI [6]: 68.3 µM | TGI [7]: > 100 µM | TGI [8]: > 100 µM | TGI [9]: > 100 µM | TGI [10]: > 100 µM | TGI [11]: 83.1 µM | TGI [12]: > 100 µM | TGI [13]: 68.3 µM | TGI [14]: > 100 µM | TGI [15]: 82.3 µM | TGI [16]: 57.7 µM | TGI [17]: > 100 µM | TGI [18]: > 100 µM | TGI [19]: > 100 µM | TGI [20]: > 100 µM | TGI [21]: > 100 µM | TGI [22]: 61.5 µM | TGI [23]: > 100 µM | TGI [24]: 49.6 µM | TGI [25]: > 100 µM | TGI [26]: > 100 µM | TGI [27]: > 100 µM | TGI [28]: > 100 µM | TGI [29]: 79.3 µM | TGI [30]: 76.9 µM | TGI [31]: > 100 µM | TGI [32]: > 100 µM | TGI [33]: > 100 µM | TGI [34]: > 100 µM | TGI [35]: 35.7 µM | TGI [36]: > 100 µM | TGI [37]: > 100 µM | TGI [38]: > 100 µM | TGI [39]: > 100 µM | TGI [40]: > 100 µM | TGI [41]: 89.7 µM | TGI [42]: 39.4 µM | TGI [43]: > 100 µM | TGI [44]: > 100 µM | TGI [45]: > 100 µM | TGI [46]: > 100 µM | TGI [47]: 58.8 µM | TGI [48]: > 100 µM | TGI [49]: > 100 µM | TGI [50]: > 100 µM | TGI [51]: 48.8 µM | TGI [52]: > 100 µM | TGI [53]: > 100 µM | TGI [54]: > 100 µM

COC(=O)CCCC(=O)C1=Nc2ccccc2CN(c2ccc(Cl)cc2)N1
TGI [1]: > 100 µM | TGI [2]: > 100 µM | TGI [55]: > 100 µM | TGI [3]: > 100 µM | TGI [4]: > 100 µM | TGI [5]: > 100 µM | TGI [6]: > 100 µM | TGI [56]: > 100 µM | TGI [7]: > 100 µM | TGI [8]: > 100 µM | TGI [9]: > 100 µM | TGI [11]: > 100 µM | TGI [12]: > 100 µM | TGI [57]: > 100 µM | TGI [13]: > 100 µM | TGI [14]: > 100 µM | TGI [15]: > 100 µM | TGI [16]: > 100 µM | TGI [17]: > 100 µM | TGI [18]: > 100 µM | TGI [19]: > 100 µM | TGI [20]: > 100 µM | TGI [21]: > 100 µM | TGI [22]: > 100 µM | TGI [23]: > 100 µM | TGI [24]: > 100 µM | TGI [25]: > 100 µM | TGI [26]: > 100 µM | TGI [27]: > 100 µM | TGI [28]: > 100 µM | TGI [30]: > 100 µM | TGI [31]: > 100 µM | TGI [32]: > 100 µM | TGI [34]: > 100 µM | TGI [35]: > 100 µM | TGI [36]: > 100 µM | TGI [37]: > 100 µM | TGI [38]: > 100 µM | TGI [39]: > 100 µM | TGI [40]: > 100 µM | TGI [41]: > 100 µM | TGI [42]: > 100 µM | TGI [43]: > 100 µM | TGI [44]: > 100 µM | TGI [45]: > 100 µM | TGI [46]: > 100 µM | TGI [47]: 87.7 µM | TGI [48]: > 100 µM | TGI [49]: > 100 µM | TGI [50]: > 100 µM | TGI [51]: > 100 µM | TGI [52]: 49.5 µM | TGI [53]: > 100 µM | TGI [54]: > 100 µM
